This is an account of results in ChEMBL document CHEMBL5465560, “Selectivity Literature for EUbOPEN Chemogenomic Library” (2024).

Experiment [1] addresses Cell division cycle 7-related protein kinase (Homo sapiens, UniProt O00311). Put plainly: Selectivity interaction (LanthaScreen Eu Kinase Binding Assay) EUB0001632a CDC7. To be noted: at 10 µM. Background: TR-FRET usually uses a lanthanide donor and a delayed reading to cut background.
Experiment [2] addresses Serine/threonine-protein kinase SIK2 (Homo sapiens) (UniProt Q9H0K1). Put plainly: Selectivity interaction (Kinase panel (Carna Biosciences)) EUB0001542aTs SIK2. To be noted: at 1 µM.
The target of experiment [3] is T1, Protein kinase C epsilon type (Homo sapiens) (UniProt Q02156).
T1 sequence (whole entry): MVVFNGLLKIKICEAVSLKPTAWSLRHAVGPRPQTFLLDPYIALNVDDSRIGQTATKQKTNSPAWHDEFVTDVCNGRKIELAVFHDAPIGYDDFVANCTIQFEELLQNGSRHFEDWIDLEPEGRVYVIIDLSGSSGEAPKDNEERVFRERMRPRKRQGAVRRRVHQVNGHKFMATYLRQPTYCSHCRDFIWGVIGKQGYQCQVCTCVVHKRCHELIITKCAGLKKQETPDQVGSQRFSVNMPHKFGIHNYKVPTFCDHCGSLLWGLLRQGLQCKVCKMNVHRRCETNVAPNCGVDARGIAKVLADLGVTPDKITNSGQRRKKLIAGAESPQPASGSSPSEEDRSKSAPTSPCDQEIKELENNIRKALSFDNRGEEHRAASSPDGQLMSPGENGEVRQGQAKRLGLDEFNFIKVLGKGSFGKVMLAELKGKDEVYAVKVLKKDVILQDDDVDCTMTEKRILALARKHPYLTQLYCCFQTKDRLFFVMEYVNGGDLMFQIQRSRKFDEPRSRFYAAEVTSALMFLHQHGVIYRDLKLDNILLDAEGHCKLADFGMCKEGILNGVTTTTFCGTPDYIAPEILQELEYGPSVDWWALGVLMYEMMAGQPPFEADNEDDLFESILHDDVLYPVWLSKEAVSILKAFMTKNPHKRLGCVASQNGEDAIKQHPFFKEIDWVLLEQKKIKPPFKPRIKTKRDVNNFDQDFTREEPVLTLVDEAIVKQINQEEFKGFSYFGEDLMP
Briefly: Selectivity interaction (Ambit KINOMEscan and KiNATiv profiling in Jurkat cells) EUB0000090b PRKCE. The note with it: at 1 µM. The experiment is classed as cell-based.

For experiment [4], the target named is Receptor-type tyrosine-protein kinase FLT3 (Homo sapiens) (UniProt P36888). Briefly: Selectivity interaction (KinomeScan (DiscoverX)) EUB0000229b FLT3. To be noted: at 10 µM.
In experiment [5] the target is Mitogen-activated protein kinase 11 (Homo sapiens) (UniProt Q15759). Put plainly: Selectivity interaction (KinomeScan (DiscoverX)) EUB0000229b MAPK11. The note with it: at 10 µM.
Sequence of Mitogen-activated protein kinase 11 (Homo sapiens) (Q15759 whole entry): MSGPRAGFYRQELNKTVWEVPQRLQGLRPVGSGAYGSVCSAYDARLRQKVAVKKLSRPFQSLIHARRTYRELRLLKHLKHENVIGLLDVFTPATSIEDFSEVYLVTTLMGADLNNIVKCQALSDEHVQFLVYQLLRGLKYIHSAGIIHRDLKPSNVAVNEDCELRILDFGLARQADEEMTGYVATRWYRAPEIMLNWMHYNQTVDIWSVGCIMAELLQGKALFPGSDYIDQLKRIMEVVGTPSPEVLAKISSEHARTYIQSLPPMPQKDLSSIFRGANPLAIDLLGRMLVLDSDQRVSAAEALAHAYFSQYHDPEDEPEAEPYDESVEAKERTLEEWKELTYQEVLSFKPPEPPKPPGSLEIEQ
In experiment [6] the target is Serine/threonine-protein kinase MARK1 (Homo sapiens) (UniProt Q9P0L2). Put plainly: Selectivity interaction (KinomeScan (DiscoverX)) EUB0001079a MARK1. The note with it: at 1 µM.
Sequence of Serine/threonine-protein kinase MARK1 (Homo sapiens) (Q9P0L2 whole entry, looked up): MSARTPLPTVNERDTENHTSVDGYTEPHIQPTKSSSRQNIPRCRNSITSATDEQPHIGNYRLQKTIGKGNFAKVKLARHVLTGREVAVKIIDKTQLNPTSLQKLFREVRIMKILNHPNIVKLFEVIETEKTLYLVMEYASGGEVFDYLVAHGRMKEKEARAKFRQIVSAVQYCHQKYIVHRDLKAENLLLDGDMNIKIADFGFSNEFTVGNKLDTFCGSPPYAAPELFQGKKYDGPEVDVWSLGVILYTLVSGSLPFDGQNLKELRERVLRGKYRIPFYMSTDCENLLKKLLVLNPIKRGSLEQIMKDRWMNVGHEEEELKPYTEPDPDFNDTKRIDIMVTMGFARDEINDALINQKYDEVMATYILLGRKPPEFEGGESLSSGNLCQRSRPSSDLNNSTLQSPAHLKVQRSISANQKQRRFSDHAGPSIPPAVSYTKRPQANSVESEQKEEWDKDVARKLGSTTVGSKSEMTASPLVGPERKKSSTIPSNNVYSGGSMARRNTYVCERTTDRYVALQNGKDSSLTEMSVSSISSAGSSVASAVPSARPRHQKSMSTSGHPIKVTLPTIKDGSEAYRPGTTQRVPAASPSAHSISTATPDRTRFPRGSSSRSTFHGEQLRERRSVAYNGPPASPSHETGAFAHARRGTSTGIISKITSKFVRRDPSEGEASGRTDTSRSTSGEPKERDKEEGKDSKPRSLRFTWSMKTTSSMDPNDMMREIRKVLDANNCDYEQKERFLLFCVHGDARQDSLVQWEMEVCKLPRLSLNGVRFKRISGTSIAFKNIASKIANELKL
The target in experiment [7] is Serine/threonine-protein kinase mTOR (Homo sapiens, UniProt P42345). Put plainly: Selectivity interaction (ActivX KiNativ screen (kinase selectivity in THP-1 cell lysates)) EUB0000639a MTOR. The experiment is classed as subcellular. To be noted: lysate.
Experiment [8] has as its target Protein-tyrosine kinase 2-beta (Homo sapiens) (UniProt Q14289). Put plainly: Selectivity interaction (ActivX KiNativ screen (kinase selectivity in THP-1 cell lysates)) EUB0000639a PTK2B. The experiment is classed as subcellular. The note with it: lysate, at 0.04 µM.
For experiment [9], the target named is Tyrosine-protein kinase Fyn (Homo sapiens) (UniProt P06241). Put plainly: Selectivity interaction (KinomeScan (DiscoverX)) EUB0000695a FYN. The note with it: at 100 nM.
Sequence of Tyrosine-protein kinase Fyn (Homo sapiens) (P06241 2-537 limits assumed): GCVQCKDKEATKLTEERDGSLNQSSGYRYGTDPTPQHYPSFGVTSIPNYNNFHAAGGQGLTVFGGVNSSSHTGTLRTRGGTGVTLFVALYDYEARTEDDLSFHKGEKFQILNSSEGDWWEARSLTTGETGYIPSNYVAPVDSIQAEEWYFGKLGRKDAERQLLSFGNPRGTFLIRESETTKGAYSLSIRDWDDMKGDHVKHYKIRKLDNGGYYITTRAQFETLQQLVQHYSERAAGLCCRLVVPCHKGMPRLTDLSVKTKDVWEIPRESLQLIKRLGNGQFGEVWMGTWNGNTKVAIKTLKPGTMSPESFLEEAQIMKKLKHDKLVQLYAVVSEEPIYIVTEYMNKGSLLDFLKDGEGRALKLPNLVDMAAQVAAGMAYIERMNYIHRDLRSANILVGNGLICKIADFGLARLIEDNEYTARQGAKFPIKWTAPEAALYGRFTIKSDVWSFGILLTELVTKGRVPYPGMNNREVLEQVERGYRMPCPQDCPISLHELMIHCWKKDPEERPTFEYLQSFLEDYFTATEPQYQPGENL
For experiment [10], the target named is T2, Serine/threonine-protein kinase ULK3 (Homo sapiens) (UniProt Q6PHR2).
T2 sequence (whole entry): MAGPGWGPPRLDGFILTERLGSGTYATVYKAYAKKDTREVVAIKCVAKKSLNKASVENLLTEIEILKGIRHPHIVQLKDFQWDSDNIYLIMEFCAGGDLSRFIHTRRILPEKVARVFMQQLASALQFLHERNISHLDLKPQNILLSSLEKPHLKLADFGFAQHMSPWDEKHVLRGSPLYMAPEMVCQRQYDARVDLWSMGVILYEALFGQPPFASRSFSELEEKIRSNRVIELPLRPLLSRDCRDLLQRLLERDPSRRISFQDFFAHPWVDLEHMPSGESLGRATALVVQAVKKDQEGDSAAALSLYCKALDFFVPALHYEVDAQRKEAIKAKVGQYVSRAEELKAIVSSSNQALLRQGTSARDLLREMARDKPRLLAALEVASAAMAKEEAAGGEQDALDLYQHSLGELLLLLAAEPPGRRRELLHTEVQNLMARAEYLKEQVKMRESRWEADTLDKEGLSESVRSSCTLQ
Put plainly: Selectivity interaction (KinomeScan (DiscoverX)) EUB0000695a ULK3. To be noted: at 100 nM.

The target in experiment [11] is T3, Ephrin type-A receptor 6 (Homo sapiens) (UniProt Q9UF33).
T3 sequence (whole entry): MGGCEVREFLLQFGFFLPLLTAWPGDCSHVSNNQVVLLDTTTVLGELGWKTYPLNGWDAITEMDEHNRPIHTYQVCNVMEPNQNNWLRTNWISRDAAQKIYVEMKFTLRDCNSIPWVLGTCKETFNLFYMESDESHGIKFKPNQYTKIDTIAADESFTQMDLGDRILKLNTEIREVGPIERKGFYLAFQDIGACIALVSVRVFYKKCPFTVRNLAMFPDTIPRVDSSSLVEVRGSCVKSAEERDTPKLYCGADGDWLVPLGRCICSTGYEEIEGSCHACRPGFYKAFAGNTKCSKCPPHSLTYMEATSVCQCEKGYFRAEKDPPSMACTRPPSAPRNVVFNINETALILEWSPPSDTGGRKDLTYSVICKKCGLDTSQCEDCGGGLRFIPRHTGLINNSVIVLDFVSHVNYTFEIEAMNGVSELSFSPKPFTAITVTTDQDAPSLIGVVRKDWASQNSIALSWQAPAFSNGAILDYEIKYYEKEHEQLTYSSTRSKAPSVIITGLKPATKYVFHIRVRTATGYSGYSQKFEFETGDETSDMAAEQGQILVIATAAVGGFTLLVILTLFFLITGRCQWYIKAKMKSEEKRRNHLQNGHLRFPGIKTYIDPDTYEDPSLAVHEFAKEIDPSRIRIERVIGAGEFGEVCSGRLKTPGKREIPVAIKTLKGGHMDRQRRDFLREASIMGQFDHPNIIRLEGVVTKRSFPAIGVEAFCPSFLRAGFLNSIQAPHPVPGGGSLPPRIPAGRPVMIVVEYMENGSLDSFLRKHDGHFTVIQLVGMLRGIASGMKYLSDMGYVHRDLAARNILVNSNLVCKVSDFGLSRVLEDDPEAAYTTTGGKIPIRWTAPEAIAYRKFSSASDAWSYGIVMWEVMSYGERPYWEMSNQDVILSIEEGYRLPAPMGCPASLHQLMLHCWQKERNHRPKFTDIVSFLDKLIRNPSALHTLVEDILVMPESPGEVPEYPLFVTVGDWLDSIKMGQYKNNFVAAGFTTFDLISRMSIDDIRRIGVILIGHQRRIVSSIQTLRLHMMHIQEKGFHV
Put plainly: Selectivity interaction (KinomeScan (DiscoverX)) EUB0000595a EPHA6. The note with it: at 10 µM.

Sequence of Protein-tyrosine kinase 2-beta (Homo sapiens) (Q14289 whole entry, looked up): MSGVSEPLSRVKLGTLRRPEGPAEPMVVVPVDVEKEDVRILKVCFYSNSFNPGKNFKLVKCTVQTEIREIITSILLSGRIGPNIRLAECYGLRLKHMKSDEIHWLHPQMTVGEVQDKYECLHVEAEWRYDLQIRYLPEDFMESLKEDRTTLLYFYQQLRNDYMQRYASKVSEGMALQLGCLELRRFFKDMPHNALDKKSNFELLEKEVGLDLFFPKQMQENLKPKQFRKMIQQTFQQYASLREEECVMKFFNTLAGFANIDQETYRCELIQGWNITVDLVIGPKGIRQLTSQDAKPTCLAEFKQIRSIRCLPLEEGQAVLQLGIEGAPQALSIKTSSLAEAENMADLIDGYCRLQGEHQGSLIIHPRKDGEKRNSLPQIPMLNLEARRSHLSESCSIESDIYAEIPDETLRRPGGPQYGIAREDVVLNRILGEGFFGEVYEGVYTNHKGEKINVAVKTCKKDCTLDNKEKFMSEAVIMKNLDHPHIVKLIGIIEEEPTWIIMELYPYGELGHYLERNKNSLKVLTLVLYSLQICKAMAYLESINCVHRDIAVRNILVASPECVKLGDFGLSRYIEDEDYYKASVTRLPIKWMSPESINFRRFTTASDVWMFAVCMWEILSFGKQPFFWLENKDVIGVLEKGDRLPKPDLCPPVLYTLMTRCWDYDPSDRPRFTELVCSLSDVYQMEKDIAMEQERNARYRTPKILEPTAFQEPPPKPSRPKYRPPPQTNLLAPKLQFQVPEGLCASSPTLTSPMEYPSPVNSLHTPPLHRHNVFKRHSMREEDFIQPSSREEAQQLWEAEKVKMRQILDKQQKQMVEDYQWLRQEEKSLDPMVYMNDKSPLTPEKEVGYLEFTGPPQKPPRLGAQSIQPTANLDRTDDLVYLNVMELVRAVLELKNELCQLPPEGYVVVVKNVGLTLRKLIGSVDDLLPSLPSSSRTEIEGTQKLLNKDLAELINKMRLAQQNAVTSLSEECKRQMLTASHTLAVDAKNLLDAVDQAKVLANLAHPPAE
Sequence of Serine/threonine-protein kinase SIK2 (Homo sapiens) (Q9H0K1 whole entry, looked up): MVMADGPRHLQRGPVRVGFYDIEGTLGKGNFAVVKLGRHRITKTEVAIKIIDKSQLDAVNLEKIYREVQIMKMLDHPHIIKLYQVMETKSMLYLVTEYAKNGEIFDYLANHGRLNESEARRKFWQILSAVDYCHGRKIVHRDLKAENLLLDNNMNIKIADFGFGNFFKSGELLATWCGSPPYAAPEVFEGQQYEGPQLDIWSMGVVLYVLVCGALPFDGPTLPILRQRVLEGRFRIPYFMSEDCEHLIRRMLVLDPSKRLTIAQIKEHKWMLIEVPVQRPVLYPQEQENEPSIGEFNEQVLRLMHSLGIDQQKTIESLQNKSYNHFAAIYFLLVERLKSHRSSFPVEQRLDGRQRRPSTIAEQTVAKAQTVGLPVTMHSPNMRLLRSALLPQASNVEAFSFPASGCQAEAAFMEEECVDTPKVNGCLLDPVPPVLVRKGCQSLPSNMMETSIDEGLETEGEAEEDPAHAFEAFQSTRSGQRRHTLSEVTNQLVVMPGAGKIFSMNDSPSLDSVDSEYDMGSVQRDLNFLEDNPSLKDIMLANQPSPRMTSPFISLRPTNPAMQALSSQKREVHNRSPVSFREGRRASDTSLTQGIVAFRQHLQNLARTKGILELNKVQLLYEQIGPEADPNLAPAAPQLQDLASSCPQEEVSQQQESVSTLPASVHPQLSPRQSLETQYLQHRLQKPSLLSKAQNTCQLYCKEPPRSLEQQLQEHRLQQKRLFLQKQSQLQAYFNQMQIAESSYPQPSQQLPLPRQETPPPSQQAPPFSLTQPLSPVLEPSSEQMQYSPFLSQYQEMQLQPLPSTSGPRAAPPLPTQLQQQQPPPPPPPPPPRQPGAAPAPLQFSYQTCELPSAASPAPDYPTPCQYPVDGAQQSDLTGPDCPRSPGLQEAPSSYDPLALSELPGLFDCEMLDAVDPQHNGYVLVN
Sequence of Cell division cycle 7-related protein kinase (O00311 whole entry, looked up): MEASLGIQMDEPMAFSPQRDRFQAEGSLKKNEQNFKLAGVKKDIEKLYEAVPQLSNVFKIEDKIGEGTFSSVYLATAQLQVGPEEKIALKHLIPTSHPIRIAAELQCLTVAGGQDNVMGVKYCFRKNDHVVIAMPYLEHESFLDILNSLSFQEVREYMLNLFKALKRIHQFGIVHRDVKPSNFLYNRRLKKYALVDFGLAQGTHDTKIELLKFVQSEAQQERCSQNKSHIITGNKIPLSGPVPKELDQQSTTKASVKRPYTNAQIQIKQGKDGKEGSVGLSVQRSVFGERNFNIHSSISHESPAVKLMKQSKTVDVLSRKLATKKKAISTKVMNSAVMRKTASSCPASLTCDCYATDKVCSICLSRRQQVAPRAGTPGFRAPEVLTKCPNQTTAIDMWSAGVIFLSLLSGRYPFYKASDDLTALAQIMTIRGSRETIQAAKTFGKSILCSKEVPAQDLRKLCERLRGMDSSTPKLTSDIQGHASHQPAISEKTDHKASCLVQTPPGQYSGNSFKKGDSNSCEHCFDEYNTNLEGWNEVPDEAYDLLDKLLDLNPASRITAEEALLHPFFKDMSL

In the case of `Cn1cc(-n2cnc3c(NCc4nc5cc(Cl)c(Cl)cc5[nH]4)nc(N4CCOCC4)nc32)cn1`, the % of inhibition in experiment [1] was -5.05%. With `Cn1cc(Nc2nccc(N3CC4CCC(C3)N4C(=O)[C@@H]3CC3(F)F)n2)cn1`, in experiment [2], the % of inhibition was 91%. For the compound `CN(C)C/C=C/C(=O)Nc1ccc(C(=O)N2CCCC(Nc3ncc(Cl)c(-c4c[nH]c5ccccc45)n3)C2)cc1` (stereo not given), in experiment [3], the % of control stood at 99%. As for `COc1cc(N(C)c2ccnc3ccc(C(F)(F)F)cc23)cc(OC)c1OC`, the % binding was 85% in experiment [4] and 90% in experiment [5]. On to `Nc1cnc(N2CCc3cc(S(=O)(=O)Nc4c(F)cc(Cl)cc4F)cc(N4CCCC4=O)c32)nc1` [TP-020n], for which the % of control in experiment [6] turned out to be 76%.

As for `CC[C@@H]1[C@H](F)C(=O)N[C@@H]1COc1nccc2cc(C(N)=O)c(OC)cc12` [ZIMLOVISERTIB], the % of inhibition is 8% in experiment [7] (at 0.01 µM); 3% in [7] (at 0.04 µM); 4.3% in experiment [7] (at 0.2 µM); 9.9% in experiment [7] (at 1 µM); -4.7% in [7] (at 5 µM); 6.6% in [8].

Consider `Cc1cc(F)c(C(=O)Nc2cccc(-c3nncn3C(C)C)n2)cc1-n1cnc(C2CC2)c1`, for which the % of control turned out to be 99% in experiment [9] and 80% in experiment [10]. In turn, `COCC(=O)NC/C=C/c1ccc2ncnc(Nc3ccc(Oc4ccc(C)nc4)c(C)c3)c2c1` [CP-724714] displayed a % of control in [11] of 96%.
